Laboratory results as given in paper PMC10421400, “Methoxylated Flavonols and ent-Kaurane Diterpenes from the South African Helichrysum rutilans and Their Cosmetic Potential” (Plants, 2023).
pIC50: −log10 of the molar value. “And” between values parts separate entries of the source, which are not always exact repeats. Identical values can stand only once. Like-named read-outs stand apart in the source and are kept apart here.

How the values were obtained:
[1] = Trolox equivalent absorbance capacity (TEAC) assay; settings: trolox equivalents; sample stock 1 mg/mL; read at 734 nm after 30 min
Procedure: The total antioxidant activity of the test sample was measured using previously described methods. The stock solutions which contained 7 mM ABTS and 140 mM potassium-peroxodisulphate (K2S2O8) (Merck, Johannesburg, South Africa) were prepared and kept at −2 °C. The working solution was then prepared by adding 88 μL K2S2O8 solution to 5 mL ABTS solution. The two solutions were thoroughly mixed and allowed to react for 24 h at room temperature in the dark. Trolox (6-hydrox-2,5,7,8-tetramethylchroman-2-carboxylic acid) was used as the standard with concentrations ranging between 0 and 500 μM. After 24 h, the ABTS mix solution was diluted with ethanol to read a start-up absorbance (control) of approximately 2.0 (±0.1). The stock solution (1 mg/mL) of a methanol extract (HT) and purified compounds (25 μL) were allowed to react with 300 μL ABTS in the dark at room temperature for 30 min. The absorbance was read at 734 nm at 25 °C on the plate reader. The results were expressed as μM trolox equivalents per milligram dry weight (μM TE/g) of the test samples.

[2] = Ferric-ion-reducing antioxidant power (FRAP) assay; settings: ascorbic acid equivalents; sample stock 1 mg/mL; read at 593 nm after 30 min
Procedure: Working FRAP reagent was prepared in accordance with the method described previously. In a 96-well clear microplate (visible range), 10 μL of the stock solution (1 mg/mL, w/v) of the isolated compounds (C-1–C-7) and a methanol extract (HR) were mixed each with 300 μL FRAP reagent. The FRAP reagent was a mixture (10:1:1, v/v/v) of acetate buffer (300 mM, pH 3.6), tripyridyl triazine (TPTZ) (10 mM in 40 mM HCl), and FeCl3·6H2O (20 mM). After incubation at room temperature for 30 min, the plate was read at a wavelength of 593 nm on a Multiskan spectrum plate reader. L-Ascorbic acid was used as a standard with concentrations varying between 0 and 1000 μM. Further dilutions were carried out on the samples that were highly concentrated and such dilution factors were recorded and used for the calculations of the affected samples. The results were expressed as μM ascorbic acid equivalents per milligram dry weight (μM AAE/g) of the test samples.

[3] = Automated ORAC assay, peroxyl radical (AAPH); settings: for ORAC Peroxyl: trolox equivalents, AAPH-generated peroxyl radical, fluorescein probe; for ORAC peroxyl radical: scaled × 10^3
Procedure: (§1) ORAC was carried out according to the previous method with some modifications. […] The analyzer was programmed to record the fluorescence of fluorescein every 2 min after AAPH, or H2O2-Cu^2+ was added. The fluorescein solution and sample were added to the wells of an illuminated 96-well plate, and 12 µL of each of our samples (in stock solution of 1 mg/mL) was combined with 138 µL of a fluorescein working solution followed by the addition of 50 µL of 150 mg of AAPH prepared in situ in 6 mL phosphate buffer. Absorbance was measured using the Fluoroskan spectrum plate reader with the excitation wavelength set at 485 nm and the emission wavelength at 530 nm. A calibration curve was established using a trolox stock solution of concentrations in the range of 83–417 µM (R^2 = 0.9514). The ORAC values were calculated using a regression equation (Y = a + bX + cX^2) between trolox concentration (Y in µM) and the net area under the fluorescence decay curve (X). ORAC values were expressed as micromoles of trolox equivalents (TEs) per milligram of test sample. Samples without a perfect curve were further diluted and the dilution factors were used for the result calculations of such samples.

[4] = Automated ORAC assay, hydroxyl radical (H2O2-Cu2+); settings: trolox equivalents; H2O2-Cu2+-generated hydroxyl radical; fluorescein probe
Procedure: as §1

[5] = tested on: Fe2+-induced lipid peroxidation in microsomes from an S9 liver fraction; assay: Inhibition of Fe(II)-induced microsomal lipid peroxidation (TBARS); format: biochemical; settings: TBARS at 532 nm, Table 2 head prints no unit, IC50 in µg/mL
Procedure: A previously described method was used with a few modifications. The reaction mixture contained microsomes (1 mg of protein/mL in 0.01 M potassium phosphate buffer; pH 7.4, supplemented with 1.15% KCl, m/v) isolated from an S9 liver fraction using a sepharose column. The positive control included microsomes, buffer, and ferrous sulphate, in the absence of the samples to be tested.
The sample stock solutions (HR and C-1–C-7) were prepared in methanol (1 mg/mL, w/v). The working sample solutions were prepared in 0.01M potassium phosphate buffer, pH 7.4, supplemented with 1.15% KCl (m/v) diluted to 26.750, 13.375, 6.688, 3.344, 1.672, and 0.836 µg/mL concentrations. A total of 100 µL of each sample (working solutions) was dissolved in potassium phosphate buffer and pre-incubated with 500 µL microsomes at 37 °C for 30 min in a shaking water bath. A total of 200 µL of KCl buffer was added to the mixture, followed by 200 µL of a 2.5 mM ferrous sulphate solution and incubated at 37 °C for 1 h in a shaking water bath. The reaction was terminated with 10% trichloroacetic acid (TCA, m/v) solution (1 mL) containing 125 µL butylated hydroxytoluene (BHT, 0.01%) and 1 mM ethylenediaminetetraacetic acid (EDTA). Samples were centrifuged at 2000 rpm for 15 min; 1 mL of supernatant was mixed with 1 mL of 0.67% thiobarbituric acid (TBA) solution. The reaction mixture was then incubated in a water bath at 90 °C for 20 min and the absorbance was measured at 532 nm using Multiskan plate reader. EGCG, dissolved in methanol, was used as positive control. The percentage inhibition of TBARS formation relative to the positive control was calculated by Acontrol−Asample/Acontrol×100
(§2) All skin enzyme inhibitory assays and Fe^2+-induced lipid peroxidation assay calculations, expressed as percentage inhibitions ± SD, were performed using MS Excel 2013, while the final values, expressed as IC50, were determined using GraphPad prism 5.0. The data presented are means ± SD obtained from 96-well plate readers for all in vitro experiments in triplicate. Differences between the means were considered to be significant if p < 0.05 according to Prism’s one-way ANOVA. The ORAC, FRAP, and TEAC values were determined using their respective templates. Correlation coefficients among the methods used for determining total antioxidant assays (FRAP, TEAC, and ORAC), as well as skin enzymes inhibitions (tyrosinase anf elastase), were determined using SPSS version 21. Values at p < 0.05 were considered significant.

elastase = target: T1, elastase (Sus scrofa, UniProt P00772); assay: Elastase inhibition assay; format: biochemical, porcine
T1 construct: purchased Sigma-Aldrich CAS No. 39445-21-1 (catalogue number not given); host or cells: porcine pancreas
Procedure: Inhibition of elastase by the test samples was assayed using N-succ-(Ala)3-nitroanilide (SANA) as the substrate, monitoring the release of p-nitroanilide by the method described with little adjustment. The inhibitory activity determined the intensity of color released during cleavage of SANA by the action of elastase. The working reagent for anti-elastase assay was prepared in line with the literature. […] The sample stock solutions were prepared as 1 mg in 1 mL methanol. […] The mixtures were further incubated for 10 min and the absorbance was measured at 410 nm. […] The sample control involved the sample and SANA (uninhibited sample). The percentage of elastase inhibition was calculated as follows: 1−B/A×100
Elastase inhibition (%), where A is the enzyme activity without sample and B is the activity in the presence of the sample.
as §2, with “The” for “All skin enzyme inhibitory assays and Fe^2+-induced lipid peroxidation assay calculations, expressed as percentage inhibitions ± SD, were performed using MS Excel 2013, while the final values, expressed as IC50, were determined using GraphPad prism 5.0. The”

[6] = porcine pancreatic elastase, SANA substrate, 410 nm, Table 3 head prints no unit, threshold 100 µg/mL, read-out: ELA (elastase inhibition)

T1 sequence (P00772 27-266): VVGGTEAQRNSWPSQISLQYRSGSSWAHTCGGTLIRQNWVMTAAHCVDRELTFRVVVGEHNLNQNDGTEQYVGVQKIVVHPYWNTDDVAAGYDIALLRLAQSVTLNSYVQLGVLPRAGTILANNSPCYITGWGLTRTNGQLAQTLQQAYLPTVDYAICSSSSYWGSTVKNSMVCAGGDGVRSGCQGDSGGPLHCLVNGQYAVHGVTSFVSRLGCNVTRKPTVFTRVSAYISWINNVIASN

SMILES: C/C=C(\C)C(=O)Oc1c(O)c(OC)c(O)c2c(=O)c(OC)c(-c3ccccc3)oc12 [Compound C-1, 5,7,8-trihydroxy-3,6-dimethoxyflavone-8-O-2-methyl-2-butanoate]
- TEAC [1]: 1131.80 ± 6.41 µM TE/g
- FRAP [2]: 1251.45 ± 4.18 µM AAE/g
- ORAC Peroxyl [3]: 3523.51 ± 3.22 µM TE/g
- ORAC Hydroxyl [4]: 2.114 ± 4.01 × 10^6 µM TE/g
- LPO (IC50, inhibition of Fe2+-induced lipid peroxidation) [5]: 13.123 ± 0.34 µg/mL
- pIC50 (elastase; [6]): < 3.62

SMILES: COc1c(O)c(OC)c2oc(-c3ccccc3)c(OC)c(=O)c2c1O [Compound C-2, 5,7-dihydroxy-3,6,8-trimethoxyflavone]
- TEAC [1]: 1276.11 ± 1.32 µM TE/g
- FRAP [2]: 1402.62 ± 5.77 µM AAE/g
- ORAC peroxyl radical [3]: 2.935 ± 0.13 × 10^3 µMTE/g
- ORAC Peroxyl [3]: 2935.47 ± 0.13 µM TE/g
- ORAC Hydroxyl [4]: 2.413 ± 6.20 × 10^6 µM TE/g
- LPO (IC50, inhibition of Fe2+-induced lipid peroxidation) [5]: 16.421 ± 0.92 µg/mL and 16.42 ± 0.92 µg/mL
- pIC50 (elastase; [6]): < 3.54

SMILES: COc1c(OC)c(O)c2c(=O)c(OC)c(-c3ccccc3)oc2c1OC [Compound C-3, 5-hydroxy-3,6,7,8-tetramethoxyflavone]
- TEAC [1]: 1378.10 ± 9.06 µM TE/g
- FRAP [2]: 1314.42 ± 2.42 µM AAE/g
- ORAC peroxyl radical [3]: 2.431 ± 8.63 × 10^3 µMTE/g
- ORAC Peroxyl [3]: 2431.30 ± 8.63 µM TE/g
- LPO (IC50, inhibition of Fe2+-induced lipid peroxidation) [5]: 11.64 ± 1.72 µg/mL
- pIC50 (elastase; [6]): < 3.55

SMILES: COc1cc2oc(-c3ccccc3)c(OC)c(=O)c2c(O)c1OC [Compound C-4, 5-hydroxy-3,6,7-trimethoxyflavone]
- TEAC [1]: 1207.11 ± 7.21 µM TE/g
- FRAP [2]: 1119.44 ± 11.89 µM AAE/g
- ORAC peroxyl radical [3]: 2.814 ± 5.20 × 10^3 µMTE/g
- ORAC Peroxyl [3]: 2814.51 ± 5.20 µM TE/g
- ORAC Hydroxyl [4]: 1.917 ± 3.91 × 10^6 µM TE/g
- LPO (IC50, inhibition of Fe2+-induced lipid peroxidation) [5]: 14.90 ± 0.06 µg/mL
- pIC50 (elastase; [6]): < 3.52

SMILES: C=C1CC23CCC4C(C)(C(=O)O)CCCC4(C)C2CCC1C3 (stereo not drawn) [Compound C-5, ent-kaurenoic acid]
- TEAC [1]: 1105.00 ± 3.09 µM TE/g
- FRAP [2]: 19.66 ± 8.12 µM AAE/g
- ORAC Peroxyl [3]: 364.44 ± 6.71 µM TE/g
- ORAC Hydroxyl [4]: 0.429 ± 12.00 × 10^6 µM TE/g
- LPO (IC50, inhibition of Fe2+-induced lipid peroxidation) [5]: >100 µg/mL
- pIC50 (elastase; [6]): < 3.48

SMILES: C=C1C2CCC3C4(C)CCCC(C)(C(=O)O)C4CCC3(C2)C1O (stereo not drawn) [Compound C-7, 15-α-hydroxy-(-)-ent-kaur-16-en-19-oic acid]
- TEAC [1]: 1424.51 ± 0.70 µM TE/g
- FRAP [2]: 60.90 ± 7.90 µM AAE/g
- ORAC Peroxyl [3]: 93.10 ± 13.68 µM TE/g
- ORAC Hydroxyl [4]: 0.845 ± 13.34 × 10^6 µM TE/g
- LPO (IC50, inhibition of Fe2+-induced lipid peroxidation) [5]: >100 µg/mL
- pIC50 (elastase; [6]): < 3.50

SMILES: O=C(O[C@@H]1Cc2c(O)cc(O)cc2O[C@@H]1c1cc(O)c(O)c(O)c1)c1cc(O)c(O)c(O)c1 [EGCG, Epigallocatechin gallate, reference compound]
- TEAC [1]: 11545.44 ± 17.28 µM TE/g
- FRAP [2]: 3326.45 ± 5.76 µM AAE/g
- ORAC Peroxyl [3]: 14693.09 ± 5.53 µM TE/g
- ORAC Hydroxyl [4]: 3.862 ± 4.65 × 10^6 µM TE/g
- LPO (IC50, inhibition of Fe2+-induced lipid peroxidation) [5]: 0.929 ± 4.11 µg/mL

SMILES: O=c1cc(CO)occ1O [KJA, kojic acid, reference compound]
- pIC50 (elastase): < 3.15
